Where two headings read alike, the source gives them in different places.
What was measured:
Micrococcus flavus = details: M. flavus; 0.15 nmol per well; 30°C overnight
Experimental: Agar well diffusion assay against Micrococcus flavus was performed as described previously ([van Heel et al., 2013]). 0.15 nmol of each sample was added to each well. The agar plate was incubated at 30°C overnight, after which the zone of inhibition was measured.
(§1) M. flavus was used as the indicator strain for the agar well diffusion assay, and 0.15 nmol of each sample was added to each well (Figure 3). […] Antimicrobial activity of all compounds was tested by growth inhibition assays against two clinically relevant Gram-positive pathogens, i.e., methicillin resistant S. aureus and vancomycin resistant E. faecium, as well as L. monocytogenes, and L. lactis. […] For this experiment, an activity test was performed against the NSR producing strain L. lactis NZ9000 (pNSR).

[1] = tested on: L. lactis NZ9000 (pEmpty); details: for MIC value, L. lactis NZ9000 (pEmpty): broth microdilution (Wiegand et al. 2008), samples in 0.05% acetic acid, strain with empty plasmid
Experimental: (§2) All samples were resuspended in 0.05% aqueous acetic acid solution and the peptide amount was quantified by HPLC according to Schmitt et al. ([Schmitt et al., 2019]). The indicator strains MW2-MRSA, Enterococcus faecium, Listeria monocytogenes, and Lactococcus lactis were first streaked on GM17 plate and cultured overnight. The peptide samples were diluted with 0.05% acetic acid to a concentration of 40–320 μM (depending on the estimated activity of the peptide and the strain tested). The MIC value test was performed according to [Wiegand et al. (2008)].
as §1

[2] = tested on: MW2-MRSA (Staphylococcus aureus MW2, methicillin resistant)
Experimental: as §2, §1

[3] = tested on: Listeria monocytogenes LMG 10470
Experimental: as §2, §1

L. lactis NZ9000 (pNSR) = details: for MIC against NZ9000 with vs without NSR production: L. lactis NZ9000 (pNSR) vs NZ9000 (pEmpty); for MIC value, L. lactis NZ9000 (pNSR): broth microdilution (Wiegand et al. 2008), strain expressing nisin resistance protein NSR
Experimental: as §2, §1

[4] = tested on: Enterococcus faecium LMG 16003 (vancomycin resistant, VRE)
Experimental: as §2, §1

[5] = broth microdilution (Wiegand et al. 2008), samples in 0.05% acetic acid, quantified by HPLC
[6] = ratio of MICs vs nisin ABC + O6

Row | Structure (SMILES) | Antimicrobial activity (zone of inhibition) in agar well diffusion assay (Micrococcus flavus) | MIC value, L. lactis NZ9000 (pEmpty) [1] [μM] | MIC value, MW2-MRSA [2, 5] [µM] | MIC value, L. monocytogenes [3, 5] [µM] | Decrease of antimicrobial activity compared to full nisin, L. monocytogenes ([3]; ratio of MICs vs nisin) [fold] | Increase of antimicrobial activity compared to nisin ABC, L. monocytogenes ([3]; ratio of MICs vs nisin ABC) [fold] | Increase of antimicrobial activity compared to nisin ABC + O6, L. monocytogenes [3, 6] | MIC against NZ9000 with vs without NSR production (L. lactis NZ9000 (pNSR)) | MIC value, L. lactis NZ9000 (pNSR) (L. lactis NZ9000 (pNSR)) [μM] | Increase of antimicrobial activity compared to nisin ABC, L. lactis ([1]; ratio of MICs vs nisin ABC) [fold] | Increase of antimicrobial activity compared to nisin ABC + O6, L. lactis [1, 6] | MIC value, E. faecium [4, 5] [µM] | Decrease of antimicrobial activity compared to full nisin, E. faecium ([4]; ratio of MICs vs nisin) [fold] | Increase of antimicrobial activity compared to nisin ABC, E. faecium ([4]; ratio of MICs vs nisin ABC) [fold] | Increase of antimicrobial activity compared to nisin ABC + O6, E. faecium [4, 6] | MIC value, MW2-MRSA ([2]; MW2- ( MW2, methicillin resistant)) [µM] | MIC value, L. monocytogenes ([3]; LMG 10470) [µM] | MIC value, E. faecium ([4]; LMG 16003) [µM]
1 | C=C1NC(=O)[C@H]([C@@H](C)CC)NC(=O)[C@H](NC(=O)/C(=C/C)NC(=O)[C@@H](N)[C@@H](C)CC)CSC[C@@H](C(=O)N[C@H]2C(=O)N3CCC[C@H]3C(=O)NCC(=O)N[C@H](C(=O)N[C@@H](CCCCN)C(=O)NCCCn3cc(CCC(=O)N4[C@H](C(=O)N5[C@H](C(=O)N6[C@H](C(=O)N7[C@H](C(=O)N8[C@H](C(=O)N9[C@H](C(=O)N[C@@H](CCCCN)C(=O)N[C@@H](CCCCN)C(=O)N[C@@H](CCCCN)C(=O)O)C[C@@H]%10CCCC[C@@H]%109)C[C@@H]9CCCC[C@@H]98)C[C@@H]8CCCC[C@@H]87)C[C@@H]7CCCC[C@@H]76)C[C@@H]6CCCC[C@@H]65)C[C@@H]5CCCC[C@@H]54)nn3)CS[C@H]2C)NC(=O)[C@H](CC(C)C)NC1=O [Nisin AB + O6K3] | the only active one | 10 | – | – | – | – | – | – | – | – | – | – | – | – | – | – | – | –
2 | C=C1NC(=O)[C@H]([C@@H](C)CC)NC(=O)[C@H](NC(=O)/C(=C/C)NC(=O)[C@@H](N)[C@@H](C)CC)CSC[C@@H](C(=O)N[C@H]2C(=O)N3CCC[C@H]3C(=O)NCC(=O)N[C@H](C(=O)N[C@@H](CCCCN)C(=O)N[C@H]3C(=O)NCC(=O)N[C@@H](C)C(=O)N[C@@H](CC(C)C)C(=O)N[C@@H](CCSC)C(=O)NCC(=O)N[C@H](C(=O)N[C@@H](CC(N)=O)C(=O)NCCCn4cc(CCC(=O)N5[C@H](C(=O)N6[C@H](C(=O)N7[C@H](C(=O)N8[C@H](C(=O)N9[C@H](C(=O)N%10[C@H](C(=O)N[C@@H](CCCCN)C(=O)N[C@@H](CCCCN)C(=O)N[C@@H](CCCCN)C(=O)O)C[C@@H]%11CCCC[C@@H]%11%10)C[C@@H]%10CCCC[C@@H]%109)C[C@@H]9CCCC[C@@H]98)C[C@@H]8CCCC[C@@H]87)C[C@@H]7CCCC[C@@H]76)C[C@@H]6CCCC[C@@H]65)nn4)CS[C@H]3C)CS[C@H]2C)NC(=O)[C@H](CC(C)C)NC1=O [Nisin ABC + O6K3] | – | 2.5 | 80 | 10 | 4 | 4 | twice | identical MICs | 2.5 | 2 | twice | 2.5 | 8 | 16 | twice | – | – | –
3 | C=C1NC(=O)[C@H]([C@@H](C)CC)NC(=O)[C@H](NC(=O)/C(=C/C)NC(=O)[C@@H](N)[C@@H](C)CC)CSC[C@@H](C(=O)N[C@H]2C(=O)N3CCC[C@H]3C(=O)NCC(=O)N[C@H](C(=O)N[C@@H](CCCCN)C(=O)N[C@H]3C(=O)NCC(=O)N[C@@H](C)C(=O)N[C@@H](CC(C)C)C(=O)N[C@@H](CCSC)C(=O)NCC(=O)N[C@H](C(=O)N[C@@H](CC(N)=O)C(=O)NCCCn4cc(CCC(=O)N5[C@H](C(=O)N6[C@H](C(=O)N7[C@H](C(=O)N8[C@H](C(=O)N9[C@H](C(=O)N%10[C@H](C(=O)O)C[C@@H]%11CCCC[C@@H]%11%10)C[C@@H]%10CCCC[C@@H]%109)C[C@@H]9CCCC[C@@H]98)C[C@@H]8CCCC[C@@H]87)C[C@@H]7CCCC[C@@H]76)C[C@@H]6CCCC[C@@H]65)nn4)CS[C@H]3C)CS[C@H]2C)NC(=O)[C@H](CC(C)C)NC1=O [Nisin ABC + O6] | – | 5.0 | – | – | – | – | – | identical MICs | 5.0 | – | – | – | – | – | – | 80 | 20 | 5

Source: PMC7715017, “Conjugation of Synthetic Polyproline Moietes to Lipid II Binding Fragments of Nisin Yields Active and Stable Antimicrobials” (Frontiers in Microbiology, 2020)
